pKi: −log10 of the molar value.
target: T1, D4 receptors from human (Homo sapiens, UniProt P21917); assay: D4 receptor binding assay (3H-YM 09151-2 displacement); conditions: COS cells containing recombinantly produced human D4 receptors; 0.5 nM 3H-YM 09151-2
T1 construct: expressed in transfected cells; host or cells: COS cells
T1 sequence (P21917 1-419): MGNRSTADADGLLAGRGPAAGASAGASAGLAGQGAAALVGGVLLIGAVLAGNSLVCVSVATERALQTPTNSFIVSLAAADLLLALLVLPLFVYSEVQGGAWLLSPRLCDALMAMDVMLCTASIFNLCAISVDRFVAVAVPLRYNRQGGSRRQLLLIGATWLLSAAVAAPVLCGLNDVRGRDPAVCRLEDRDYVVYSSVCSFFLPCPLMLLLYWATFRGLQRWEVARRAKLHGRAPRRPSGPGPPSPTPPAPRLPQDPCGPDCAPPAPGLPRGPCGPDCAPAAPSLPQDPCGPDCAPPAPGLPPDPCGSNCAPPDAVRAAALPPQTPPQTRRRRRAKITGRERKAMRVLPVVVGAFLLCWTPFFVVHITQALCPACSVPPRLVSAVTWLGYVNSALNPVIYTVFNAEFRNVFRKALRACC
Experimental: (§1) Assays for D2, D3 and D4 Receptor Binding Activity
(§2) Pellets of COS cells containing recombinantly produced D2 or D4 receptors from human are used for the assays. The sample is homogenized in 100 volumes (w/vol) of 0.05 M Tris HCl buffer at 4° C. and pH 7.4. The sample is then centrifuged at 30,000×g and resuspended and rehomogenized. The sample is then centrifuged again at 30,000×g and the final tissue sample is frozen until use. The tissue is resuspended 1:20 (wt/vol) in 0.05 M Tris HCl buffer containing 100 mM NaCl.
(§3) Incubations are carried out a […] and contain 0.4 ml of tissue sample, 0.5 nM ^3H-YM 09151-2 (Nemonapride, cis-5-Chloro-2-methoxy-4-(methylamino)-N-(2-methyl-2-(phenylmethyl)-3-pyrrolidinyl)benzamide) and the compound of interest in a total incubation of 1.0 ml. Nonspecific binding is defined as that binding found in the presence of […] spiperone; without further additions, nonspecific binding is less than 20% of total binding.

Structure (SMILES) | pKi
COc1ccccc1N1CCN(CCNc2nc3ccc(F)cc3s2)CC1 [Compound 2, 1-(2-Methoxyphenyl)-4-(2-[6-fluorobenzothiazol-2-ylamino]ethyl)piperazine difumarate] | 9.00
Cl.c1ccc(N2CCN(CCNc3nc4ccccc4o3)CC2)nc1 [Compound 3, 1-(Pyridin-2-yl)-4-(2-[benzoxazol-2-yl]aminoethyl)piperazine hydrochloride] | 7.96
Fc1cnc(N2CCN(CCCCNc3nc4ccccc4s3)CC2)nc1 [Compound 6] | 8.22
Br.Cn1c(NCCN2CCN(c3cccc(C(F)(F)F)c3)CC2)nc2ccccc21 [Compound 1, 1-(3-Trifluoromethylphenyl)-4-(2-[1-methylbenzimidazol-2-yl]aminoethyl)piperazine hydrobromide] | 8.52

tested on: not given; assay: not given; conditions: not given

Structure (SMILES) | melting point
Br.CC(C)Oc1ccccc1N1CCN(CCNc2nc3ccc(F)cc3s2)CC1 | 216 to 217 °C
Fc1ccc2nc(NCCN3CCN(c4ncccn4)CC3)sc2c1.O=C(O)/C=C/C(=O)O.O=C(O)/C=C/C(=O)O | 179 to 180 °C
Fc1ccc2nc(NCCN3CCN(Cc4ccccc4)CC3)sc2c1.O=C(O)/C=C/C(=O)O.O=C(O)/C=C/C(=O)O | 228 to 229 °C
Br.c1ccc(N2CCN(CCNc3nc4ccccc4[nH]3)CC2)cc1 | 241 to 247 °C
Fc1cnc(N2CCN(CCNc3nc4ccccc4s3)CC2)nc1.O=C(O)/C=C/C(=O)O.O=C(O)/C=C/C(=O)O | 174 to 175 °C
Br.CCOc1ccc2nc(NCCN3CCN(c4ccccc4OC)CC3)sc2c1 | 227 to 228 °C
Cc1cnc(N2CCN(CCNc3nc4ccccc4s3)CC2)nc1.O=C(O)/C=C/C(=O)O.O=C(O)/C=C/C(=O)O | 167 to 170 °C
Br.CCOc1ccccc1N1CCN(CCNc2nc3ccc(F)cc3s2)CC1 | 235 to 237 °C
Br.CCn1c(NCCN2CCN(c3ccccc3OC)CC2)nc2ccccc21 | 109 to 110 °C
O=C(O)/C=C/C(=O)O.O=C(O)/C=C/C(=O)O.c1ccc(N2CCN(CCNc3nc4ccccc4s3)CC2)nc1 | 159 to 160 °C
Br.CC(C)Oc1ccccc1N1CCN(CCNc2nc3ccccc3n2C)CC1 | 285 °C (dec.)
Br.COc1ccccc1N1CCN(CCNc2nc3c(OC)cccc3s2)CC1 | 171 to 173 °C
Br.c1ccc(N2CCN(CCNc3nc4ccccc4[nH]3)CC2)nc1 | 290 to 291 °C
Br.COc1ccccc1N1CCN(CCNc2nc3ccccc3n2C)CC1 | 273 to 274 °C
O=C(O)/C=C/C(=O)O.O=C(O)/C=C/C(=O)O.c1cnc(N2CCN(CCNc3nc4ccccc4s3)CC2)nc1 | 161 to 163 °C
Br.COc1ccccc1N1CCN(CCCNc2nc3ccccc3s2)CC1 | 195 to 197 °C
Br.COc1ccccc1N1CCN(CCNc2nc3c(C)cccc3s2)CC1 | 226 to 227 °C
Cl.c1ccc(N2CCN(CCNc3nc4ccccc4o3)CC2)nc1 [Compound 3, 1-(Pyridin-2-yl)-4-(2-[benzoxazol-2-yl]aminoethyl)piperazine hydrochloride] | 255 to 265 °C

Structure (SMILES) | melting point
Br.Fc1ccc2nc(NCCN3CCN(c4ccccc4)CC3)sc2c1 | 268 to 270 °C
Br.Cc1cnc(N2CCN(CCNc3nc4ccc(F)cc4s3)CC2)nc1 | 240 to 250 °C
Br.COc1ccccc1N1CCN(CCNc2nc3ccc(S(C)(=O)=O)cc3s2)CC1 | 190 to 196 °C
Br.Fc1ccc2nc(NCCN3CCN(c4cccc(C(F)(F)F)c4)CC3)sc2c1 | 259 to 261 °C
Br.COc1ccccc1N1CCN(CCNc2nc3c(Cl)cccc3s2)CC1 | 194 to 195 °C
Br.Fc1ccc2nc(NCCN3CCN(c4ccccn4)CC3)sc2c1 | 259 to 260 °C
Br.COc1ccccc1N1CCN(CCNc2nc3ccccc3[nH]2)CC1 | 215 to 216 °C
Cl.Cl.Clc1ccc(N2CCN(CCNc3nc4ccccc4s3)CC2)cc1 | 230 to 232 °C
Br.Fc1ccc2nc(NCCN3CCN(Cc4ccc(Cl)cc4)CC3)sc2c1 | 238 to 240 °C
Br.Fc1cnc(N2CCN(CCNc3nc4ccc(F)cc4s3)CC2)nc1 | 279 to 281 °C
COc1ccccc1N1CCN(CCNc2nc3ccccc3s2)CC1.O=C(O)/C=C/C(=O)O.O=C(O)/C=C/C(=O)O | 101 to 103 °C
Br.Fc1ccc(N2CCN(CCNc3nc4ccc(F)cc4s3)CC2)cc1 | 270 to 271 °C
Cl.Cl.Fc1ccc(N2CCN(CCNc3nc4ccccc4s3)CC2)cc1 | 229 to 231 °C
O=C(O)/C=C/C(=O)O.O=C(O)/C=C/C(=O)O.c1ccc(N2CCN(CCNc3nc4ccccc4s3)CC2)cc1 | 131 to 132 °C
Br.Cn1c(NCCN2CCN(c3cccc(C(F)(F)F)c3)CC2)nc2ccccc21 [Compound 1, 1-(3-Trifluoromethylphenyl)-4-(2-[1-methylbenzimidazol-2-yl]aminoethyl)piperazine hydrobromide] | 283 °C (dec.)
Cl.c1cnc(N2CCN(CCNc3nc4ccccc4o3)CC2)nc1 | 197 to 202 °C
Br.CCn1c(NCCN2CCN(c3ccccc3)CC2)nc2ccccc21 | 270 °C (dec.)

target: T2, D2 receptors from human (Homo sapiens, UniProt P14416); assay: D2 receptor binding assay (3H-YM 09151-2 displacement); conditions: COS cells containing recombinantly produced human D2 receptors; 0.5 nM 3H-YM 09151-2
T2 construct: expressed in transfected cells; host or cells: COS cells
T2 sequence (P14416 whole entry): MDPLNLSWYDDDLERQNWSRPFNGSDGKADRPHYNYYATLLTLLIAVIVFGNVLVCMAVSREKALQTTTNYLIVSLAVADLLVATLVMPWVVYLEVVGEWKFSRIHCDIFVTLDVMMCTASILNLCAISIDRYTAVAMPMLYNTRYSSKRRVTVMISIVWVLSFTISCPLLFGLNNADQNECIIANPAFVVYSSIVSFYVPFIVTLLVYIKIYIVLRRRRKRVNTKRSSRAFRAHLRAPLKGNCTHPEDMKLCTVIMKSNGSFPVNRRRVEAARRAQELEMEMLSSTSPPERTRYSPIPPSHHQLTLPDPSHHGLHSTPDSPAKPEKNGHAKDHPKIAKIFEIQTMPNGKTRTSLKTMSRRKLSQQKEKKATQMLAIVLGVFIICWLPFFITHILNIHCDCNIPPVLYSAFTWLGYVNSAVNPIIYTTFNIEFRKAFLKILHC
Experimental: as §1, §2, §3

Structure (SMILES) | pKi
COc1ccccc1N1CCN(CCNc2nc3ccc(F)cc3s2)CC1 [Compound 2, 1-(2-Methoxyphenyl)-4-(2-[6-fluorobenzothiazol-2-ylamino]ethyl)piperazine difumarate] | 6.76
Cl.c1ccc(N2CCN(CCNc3nc4ccccc4o3)CC2)nc1 [Compound 3, 1-(Pyridin-2-yl)-4-(2-[benzoxazol-2-yl]aminoethyl)piperazine hydrochloride] | < 5.00
Fc1cnc(N2CCN(CCCCNc3nc4ccccc4s3)CC2)nc1 [Compound 6] | 5.79
Br.Cn1c(NCCN2CCN(c3cccc(C(F)(F)F)c3)CC2)nc2ccccc21 [Compound 1, 1-(3-Trifluoromethylphenyl)-4-(2-[1-methylbenzimidazol-2-yl]aminoethyl)piperazine hydrobromide] | < 5.00
